According to PMC8844822, “SARM1 is a multi-functional NAD(P)ase with prominent base exchange activity, all regulated bymultiple physiologically relevant NAD metabolites” (iScience, 2022):

Key:
Assay type in all cases: biochemical
[1] = target: T1, hSARM1 full length (Homo sapiens, UniProt Q6SZW1); experiment: NADase inhibition by pyridine ribosides (HPLC); details: for NADase inhibition (in words): hSARM1, riboside fixed at 200 μM, NAD […]; for IC50: hSARM1 full length, saturating NAD ([…]), preliminary
T1 construct: Human recombinant SARM1 full length proteins (wild-type and E642A mutant); made in house
T1 sequence (Q6SZW1 28-724): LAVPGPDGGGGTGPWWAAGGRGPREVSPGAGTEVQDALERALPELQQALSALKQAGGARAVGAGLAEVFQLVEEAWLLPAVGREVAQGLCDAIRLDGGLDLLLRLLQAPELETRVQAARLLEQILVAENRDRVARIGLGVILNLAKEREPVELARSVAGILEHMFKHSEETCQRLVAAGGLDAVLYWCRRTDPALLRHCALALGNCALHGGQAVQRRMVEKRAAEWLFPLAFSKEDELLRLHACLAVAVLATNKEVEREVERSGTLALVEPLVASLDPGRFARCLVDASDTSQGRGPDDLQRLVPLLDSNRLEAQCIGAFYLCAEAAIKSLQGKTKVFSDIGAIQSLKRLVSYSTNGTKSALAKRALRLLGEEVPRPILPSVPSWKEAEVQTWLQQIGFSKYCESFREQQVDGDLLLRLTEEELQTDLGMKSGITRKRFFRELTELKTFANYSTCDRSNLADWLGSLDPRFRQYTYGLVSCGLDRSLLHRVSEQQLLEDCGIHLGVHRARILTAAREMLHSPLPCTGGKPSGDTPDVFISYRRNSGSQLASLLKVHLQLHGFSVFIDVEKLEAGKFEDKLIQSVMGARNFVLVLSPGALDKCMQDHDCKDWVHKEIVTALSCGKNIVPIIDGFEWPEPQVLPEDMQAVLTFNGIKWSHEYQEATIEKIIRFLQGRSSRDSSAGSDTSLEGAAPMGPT
Description: (§1) hSARM1 species were routinely assayed by the NAD/NADH-Glo^TM Assay (Promega) while both Aplysia cyclase and CD38 were assayed by fluorometry using ϵNAD ([Orsomando et al., 2000]). […] Other reagents used in addition to, or in place of those above are detailed in text or in figure legends, for example metal ions, free bases, dinucleotide analogues, mononucleotides, and ribosides. Assays were all carried out at 25°C except for temperature studies. Reactions were stopped by HClO4/K2CO3 and analysed by C18-HPLC as reported ([Mori et al., 2014]). Only the acid labile NADH and NADPH were treated with 1 N NaOH and neutralized using 1:1 vol of 1.73 M KH2CO3 while the highly hydrophobic metabolites vacor, VAD, VMN and VR, were analysed by a modified C18-HPLC method ([Buonvicino et al., 2018]). Reaction products were quantified from peak areas (see Figure 2A) based on coelution with standards (except for cyclic products from NAD analogues that were not available and were attributed based on UV-spectra and retention times as predicted). Rates were calculated as follows. Hydrolysis and cyclization were measured from product generation from the respective individual dinucleotide substrate used, e.g., free and cyclic ADP-ribosyl moieties from NAD (Figure 1B). A basal value for hydrolysis/cyclization was taken as sum of these latter two products. In addition to that value, base exchange or transglycosidation was calculated from the expected dinucleotide analog formed in the presence of the corresponding free base, e.g., AcPyrAD from AcPyr and NAD. The measured level of overall formed products matched in all cases the dinucleotide substrate consumed and the corresponding pyridine base released, according to the reaction scheme (Figure 1B). Furthermore, enzyme amounts forming 1 μmol/min of overall products above were referred to as single units (U) of activity and initial rates were always considered, for example until a maximum of 20% of the original substrate had been consumed and all products were still accumulating at a nearly linear rate.
(§2) Inhibition by ribosides was assayed by HPLC initially at fixed 200 μM of each NR, NaR or VR and optimized NAD concentrations for the different enzymes (see Figure 6 legend).

[2] = target: T2, hCD38 (Homo sapiens, UniProt P28907); experiment: Base exchange reactions at neutral pH (HPLC)
T2 construct: a soluble fragment Val43-Ile300 with 6x-His tag at C terminus; 6xHis (C); purchased R&D Systems
T2 sequence (P28907 43-300): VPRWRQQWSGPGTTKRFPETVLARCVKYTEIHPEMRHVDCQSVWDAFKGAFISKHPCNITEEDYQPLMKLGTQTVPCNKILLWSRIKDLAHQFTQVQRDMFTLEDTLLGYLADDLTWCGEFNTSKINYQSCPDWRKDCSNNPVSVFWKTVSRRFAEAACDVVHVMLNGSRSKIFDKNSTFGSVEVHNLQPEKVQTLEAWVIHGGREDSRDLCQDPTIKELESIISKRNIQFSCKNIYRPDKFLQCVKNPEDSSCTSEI
Description: (§3) Multiple time stops from individual assays as above were analyzed for linearity, then extents of hydrolysis (white bars), cyclization (red bars), or base exchange (black bars) were calculated from each corresponding product as shown in Figure 1B and STAR methods. […] See also Figures S3–S5, and Table S1
as §1, with “NAD.” for “NAD. The measured level of overall formed products matched in all cases the dinucleotide substrate consumed and the corresponding pyridine base released, according to the reaction scheme (Figure 1B). Furthermore, enzyme amounts forming 1 μmol/min of overall products above were referred to as single units (U) of activity and initial rates were always considered, for example until a maximum of 20% of the original substrate had been consumed and all products were still accumulating at a nearly linear rate.”

[3] = target: T1, hSARM1 full length; experiment: Base exchange reactions at neutral pH (HPLC)
Description: as §3
as §1, with “NAD.” for “NAD. The measured level of overall formed products matched in all cases the dinucleotide substrate consumed and the corresponding pyridine base released, according to the reaction scheme (Figure 1B). Furthermore, enzyme amounts forming 1 μmol/min of overall products above were referred to as single units (U) of activity and initial rates were always considered, for example until a maximum of 20% of the original substrate had been consumed and all products were still accumulating at a nearly linear rate.”

[4] = target: T3, hSARM1 SAM-TIR (Homo sapiens, UniProt Q6SZW1); experiment: Base exchange reactions at neutral pH (HPLC)
T3 construct: made in house
T3 sequence (Q6SZW1 409-724): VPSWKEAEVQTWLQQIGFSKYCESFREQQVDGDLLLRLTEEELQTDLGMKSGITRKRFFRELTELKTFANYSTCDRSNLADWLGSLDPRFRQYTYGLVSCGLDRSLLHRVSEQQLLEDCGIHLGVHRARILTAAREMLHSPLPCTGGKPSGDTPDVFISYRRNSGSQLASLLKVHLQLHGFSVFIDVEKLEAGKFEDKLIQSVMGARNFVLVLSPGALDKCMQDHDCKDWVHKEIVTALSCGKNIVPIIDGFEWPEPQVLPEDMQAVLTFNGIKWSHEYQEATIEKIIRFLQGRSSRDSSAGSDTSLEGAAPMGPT
Description: as §3
(§4) Rates were calculated as follows.

[5] = target: T4, Aplysia californica ADP ribosyl cyclase (Aplysia californica, UniProt P29241); experiment: Base exchange reactions at neutral pH (HPLC); set-up: purchased Merck A8950
T4 sequence (P29241 25-282): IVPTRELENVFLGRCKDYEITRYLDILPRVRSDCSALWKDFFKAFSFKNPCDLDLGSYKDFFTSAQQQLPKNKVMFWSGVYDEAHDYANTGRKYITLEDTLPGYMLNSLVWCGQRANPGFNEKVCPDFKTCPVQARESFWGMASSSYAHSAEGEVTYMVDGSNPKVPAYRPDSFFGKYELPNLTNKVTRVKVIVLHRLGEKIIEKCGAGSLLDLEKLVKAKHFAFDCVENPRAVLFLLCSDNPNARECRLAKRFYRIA
Description: as §3, §4

[6] = target: T3, hSARM1 SAM-TIR; experiment: NADase inhibition by pyridine ribosides, IC50 and inhibition kinetics (HPLC); details: for IC50: NAD […], preliminary; for Ki: variable NAD 15-600 μM
Description: as §1, with “NAD.” for “NAD. The measured level of overall formed products matched in all cases the dinucleotide substrate consumed and the corresponding pyridine base released, according to the reaction scheme (Figure 1B). Furthermore, enzyme amounts forming 1 μmol/min of overall products above were referred to as single units (U) of activity and initial rates were always considered, for example until a maximum of 20% of the original substrate had been consumed and all products were still accumulating at a nearly linear rate.”
as §2

[7] = NAD […] alone or + AcPyr 2 mM / Vacor 0.5 mM / Na 2 mM
[8] = NADP […] alone or + AcPyr 2 mM / Vacor 0.5 mM / Na 2 mM
[9] = hSARM1 full length +NMN 0.2 mM, NAD […]
[10] = hSARM1 full length +NMN 0.2 mM, NADP […]
[11] = hSARM1 full length +VMN 0.05 mM, NAD […]
[12] = hSARM1 full length +VMN 0.05 mM, NADP […]

For `NC(=O)c1ccc[n+]([C@@H]2O[C@H](CO)[C@@H](O)[C@H]2O)c1` [NR, nicotinamide riboside], the “NADase inhibition (in words)” value [1] was “inactive”.

In the case of `O=C(O)c1cccnc1` [Na, nicotinic acid], the rate [2, 7] is reported as 7934 ±1182 mU/mg, the rate [2, 8] is reported as 3189 ±622 mU/mg and the “base exchange, share of products” value [3, 9] is reported as 1.58%. The “cyclization, share of products” value [3, 9] was 8.35%, the “hydrolysis, share of products” value [3, 9] was 90.07% and the rate ([3]; hSARM1 full length +NMN 0.2 mM, NAD […] alone or + free base) was 201.5 ±27.9 mU/mg. The “rate (relative fold)” value ([3]; hSARM1 full length +NMN 0.2 mM, NAD […], relative to NAD alone without trigger) was 9.23 ±1.28 fold, the “base exchange, share of products” value [3, 10] was 1.48% and the “cyclization, share of products” value [3, 10] was ~ 0.05%. For the same molecule, the “hydrolysis, share of products” value [3, 10] was 98.47%, the rate ([3]; hSARM1 full length +NMN 0.2 mM, NADP […] alone or + free base) was 131.9 ±10.5 mU/mg and the “rate (relative fold)” value ([3]; hSARM1 full length +NMN 0.2 mM, NADP […], relative to NADP alone without trigger) was 8.98 ±0.711 fold. The “base exchange, share of products” value [3, 11] was 1.68%, the “cyclization, share of products” value [3, 11] was 6.44% and the “hydrolysis, share of products” value [3, 11] was 91.88%. The rate ([3]; hSARM1 full length +VMN 0.05 mM, NAD […] alone or + free base) was 199.0 ±17.6 mU/mg, the “rate (relative fold)” value ([3]; hSARM1 full length +VMN 0.05 mM, NAD […], relative to NAD alone without trigger) was 9.12 ±0.805 fold and the “base exchange, share of products” value [3, 12] was 1.28%. The “cyclization, share of products” value [3, 12] was 0.69%, the “hydrolysis, share of products” value [3, 12] was 98.03% and the rate ([3]; hSARM1 full length +VMN 0.05 mM, NADP […] alone or + free base) was 147.6 ±4.76 mU/mg. For the same molecule, the “rate (relative fold)” value ([3]; hSARM1 full length +VMN 0.05 mM, NADP […], relative to NADP alone without trigger) was 10.04 ±0.324 fold, the rate ([3]; hSARM1 full length, no trigger, NAD […] alone or + AcPyr 2 mM / Vacor 0.5 mM / Na 2 mM, pH 7.5) was 23.3 ±0.83 mU/mg and the rate ([3]; hSARM1 full length, no trigger, NADP […] alone or + AcPyr 2 mM / Vacor 0.5 mM / Na 2 mM, pH 7.5) was 17.3 ±0.54 mU/mg. The “base exchange products VAD(P) or NaAD(P), share of total products” value ([3]; hSARM1 full length, NAD or NADP 250 μM, vacor 0.5 mM, Na 2 mM) was 2%–3%, the rate [4, 7] was 315.2 ±69.6 mU/mg and the rate [4, 8] was 242.0 ±37.3 mU/mg. It also gave a rate [5, 7] of 14595 ±3147 mU/mg and a rate [5, 8] of 9872 ±1846 mU/mg.

For `O=C([O-])c1ccc[n+]([C@@H]2O[C@H](CO)[C@@H](O)[C@H]2O)c1` [NaR, nicotinic acid riboside], the IC50 [1] was 87 µM, the inhibition type [6] was “mixed-type inhibition” and the IC50 [6] was 36 µM. For the same molecule, the Ki [6] was 15 µM.

With `O=C(NCc1ccc[n+]([C@@H]2O[C@H](CO)[C@@H](O)[C@H]2O)c1)Nc1ccc([N+](=O)[O-])cc1` [VR, vacor riboside] the “NADase inhibition (in words)” value [1] was “strongly inhibited”, the IC50 [1] was 154 µM and the inhibition type [6] was “mixed-type inhibition”. For the same molecule, the IC50 [6] was 61 µM and the Ki [6] was 25.9 µM.
